SMILES strings stand for the structures.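 Compound exposure: 48 hours, 5 concentrations, 96-well plates. TGI: total growth inhibition.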

Some test systems named below: K-562 leukemia; SNB-78 CNS; DMS 114 small cell lung; NCI-H226 lung; OVCAR-3 ovarian; A498 renal; NCI/ADR-RES ovarian; SF-539 CNS; HOP-18 NSCLC; SW-620 colon; 786-0 renal; MDA-MB-435.
What all share (assay): NCI anticancer screen, dose series, 48 h

In the case of `COc1cc(C2c3cc4c(cc3[C@@H](Nc3ccc(Oc5ccccc5)cc3)C3COC(=O)[C@H]23)OCO4)cc(OC)c1O` (stereo partly specified), the TGI in the test on K-562 leukemia was greater than 32.4 µM; with SNB-78 CNS, greater than 100 µM; with DMS 114 small cell lung, greater than 22.7 µM; in the test on NCI-H226 lung, 7.9 µM; in the test with OVCAR-3 ovarian, greater than 100 µM; with A498 renal, 9.6 µM. The TGI was greater than 100 µM with NCI/ADR-RES ovarian, greater than 28.2 µM in the test on SF-539 CNS, greater than 100 µM in the test with HOP-18 NSCLC and greater than 100 µM in the test with SW-620 colon.
For `Nc1nnc(CCC(=O)Nc2cc(Cl)ccc2Cl)n1N`, the TGI in the test on K-562 leukemia, with SNB-78 CNS, in the test on DMS 114 small cell lung, in the test on NCI-H226 lung, in the test with OVCAR-3 ovarian and in the test on A498 renal was greater than 100 µM each time. For the same compound, the TGI in the test on SF-539 CNS, with HOP-18 NSCLC and in the test with SW-620 colon was greater than 100 µM in each case.
In the case of `Cn1c2[n+](c3nc(N)[nH]c(=O)c31)C1OC(C2)C(O)C1O` (stereo unspecified), the TGI with K-562 leukemia, in the test with SNB-78 CNS, in the test on DMS 114 small cell lung, in the test on NCI-H226 lung, in the test on 786-0 renal and in the test with OVCAR-3 ovarian was greater than 100 µM in each case. In addition, the TGI with A498 renal, in the test with SF-539 CNS, in the test with HOP-18 NSCLC and in the test on SW-620 colon was greater than 100 µM each time.
As for `CN(C)C(=O)OC1=CC2CCC(C1)N2C` (stereo unspecified), the TGI in the test with MDA-MB-435, in the test on K-562 leukemia, in the test on NCI-H226 lung, in the test with 786-0 renal, with OVCAR-3 ovarian and in the test with A498 renal was greater than 100 µM throughout. Also, the TGI with NCI/ADR-RES ovarian, in the test with SF-539 CNS and in the test on SW-620 colon was greater than 100 µM each time.
`O=C1/C(=C/c2[nH]ncc2-c2ccc(Cl)cc2)C(=O)N(c2ccccc2)C1c1ccccc1` (stereo unspecified): the TGI in the test with MDA-MB-435 was 35.5 µM; in the test on K-562 leukemia it was 54.5 µM; with NCI-H226 lung, 67.3 µM; in the test on 786-0 renal, 44.7 µM; with OVCAR-3 ovarian, 26.9 µM; with A498 renal, 69.6 µM. Moreover, the TGI with NCI/ADR-RES ovarian is greater than 100 µM; in the test with SF-539 CNS, 58.8 µM; in the test with SW-620 colon, 45.2 µM.
Regarding `O/C(=C\c1nc2ccccc2nc1/C=C(\O)c1ccc(F)cc1)c1ccc(F)cc1`, the TGI in the test with MDA-MB-435, in the test on K-562 leukemia, in the test on NCI-H226 lung, with 786-0 renal, in the test on OVCAR-3 ovarian and in the test with A498 renal was greater than 100 µM each time. Further, the TGI with NCI/ADR-RES ovarian, in the test with SF-539 CNS and in the test on SW-620 colon was greater than 100 µM throughout.

Source of the values: PubChem BioAssay (NCI).
